Test results published in patent publication US9878985B2, “Benzocyclobutane(thio) carboxamides” (BAYER CROPSCIENCE AKTIENGESELLSCHAFT, priority 2013, dated 2018).

Test: Log P by HPLC on reversed phase columns (EEC directive 79/831 Annex V.A8)
Assay type: physicochemical
Details: method [a]: LC-UV, acidic range, 0.1% formic acid in water and acetonitrile
Description: Measurement of Log P values was performed according to EEC directive 79/831 Annex V.A8 by HPLC (High Performance Liquid Chromatography) on reversed phase columns with the following method: • [^a] Log P value is determined by measurement of LC-UV, in an acidic range, with 0.1% formic acid in water and acetonitrile as eluent (linear gradient from 10% acetonitrile to 95% acetonitrile). Calibration was done with straight-chain alkan2-ones (with 3 to 16 carbon atoms) with known Log P values (measurement of Log P values using retention times with linear interpolation between successive alkanones). Lambda-max-values were determined using UV-spectra from 200 nm to 400 nm and the peak values of the chromatographic signals.

Compound: Cn1cc(C(=O)Nc2cccc3c2CC3c2ccccc2)c(C(F)F)n1 (centres unmarked) [Example I-01]
- LogP (Table 1): 3.20^[a]

Compound: Cn1nc(C(F)F)c(C(=O)Nc2cccc3c2CC32CCCC2)c1F [Example I-02]
- LogP (Table 1): 3.90[a]

Compound: Cn1cc(C(=O)Nc2cccc3c2CC32CCCC2)c(C(F)F)n1 [Example I-03]
- LogP (Table 1): 3.59^[a]

Compound: CCC1(CC)Cc2c(NC(=O)c3c(C(F)F)nn(C)c3Cl)cccc21 [Example I-04]
- LogP (Table 1): 4.36^[a]

Compound: CCC1(C)Cc2c(NC(=O)c3cccnc3C(F)F)cccc21 (centres unmarked) [Example I-05]
- LogP (Table 1): 3.31^[a]

Compound: CC(C)C1Cc2c(NC(=O)c3cccnc3C(F)F)cccc21 (centres unmarked) [Example I-06]
- LogP (Table 1): 3.39^[a]

Compound: Cn1nc(C(F)F)c(C(=O)Nc2cccc3c2CC32CCCCC2)c1Cl [Example I-07]
- LogP (Table 1): 4.56^[a]

Compound: Cn1cc(C(=O)Nc2cccc3c2CC32CCCCC2)c(C(F)F)n1 [Example I-08]
- LogP (Table 1): 3.94^[a]

Compound: O=C(Nc1cccc2c1CC21CCCC1)c1cccnc1C(F)F [Example I-09]
- LogP (Table 1): 3.46^[a]

Compound: Cc1nn(C)c(F)c1C(=O)Nc1cccc2c1CC21CCCCC1 [Example I-10]
- LogP (Table 1): 3.87^[a]

Compound: Cn1nc(C(F)F)c(C(=O)Nc2cccc3c2CC3c2ccccc2)c1Cl (centres unmarked) [Example I-11]
- LogP (Table 1): 3.71^[a]

Compound: CCC1(C)Cc2c(NC(=O)c3c(C(F)F)nn(C)c3Cl)cccc21 (centres unmarked) [Example I-12]
- LogP (Table 1): 3.96^[a]

Compound: CCC1(C)Cc2c(NC(=O)c3cn(C)nc3C(F)F)cccc21 (centres unmarked) [Example I-13]
- LogP (Table 1): 3.44^[a]

Compound: CCC1(CC)Cc2c(NC(=O)c3c(C(F)F)nn(C)c3F)cccc21 [Example I-14]
- LogP (Table 1): 4.11^[a]

Compound: CC1Cc2c(NC(=O)c3c(C(F)F)nn(C)c3F)cccc21 (centres unmarked) [Example I-15]
- LogP (Table 1): 3.02^[a]

Compound: CC(C)C1Cc2c(NC(=O)c3c(C(F)F)nn(C)c3Cl)cccc21 (centres unmarked) [Example I-16]
- LogP (Table 1): 4.06^[a]

Compound: O=C(Nc1cccc2c1CC21CCCCC1)c1cccnc1C(F)F [Example I-17]
- LogP (Table 1): 3.80^[a]

Compound: Cn1nc(C(F)F)c(C(=O)Nc2cccc3c2CC32CCCCC2)c1F [Example I-18]
- LogP (Table 1): 4.31^[a]

Compound: O=C(Nc1cccc2c1CC2c1ccccc1)c1cccnc1C(F)F (centres unmarked) [Example I-19]
- LogP (Table 1): 3.06^[a]

Compound: CC(C)C1Cc2c(NC(=O)c3cn(C)nc3C(F)F)cccc21 (centres unmarked) [Example I-20]
- LogP (Table 1): 3.50^[a]

Compound: Cn1nc(C(F)F)c(C(=O)Nc2cccc3c2CC32CCCC2)c1Cl [Example I-21]
- LogP (Table 1): 4.14^[a]

Compound: Nc1cccc2c1CC21CCCC1 [III-a-1]
- LogP (Table 2 (amines III-a)): 2.03^[a]

Compound: CCC1(CC)Cc2c(N)cccc21 [III-a-2]
- LogP (Table 2 (amines III-a)): 2.32^[a]

Compound: CC1Cc2c(N)cccc21 (centres unmarked) [III-a-3]
- LogP (Table 2 (amines III-a)): 0.87^[a]

Compound: CC(C)C1Cc2c(N)cccc21 (centres unmarked) [III-a-4]
- LogP (Table 2 (amines III-a)): 1.90^[a]

Compound: CC1(C)Cc2c(N)cccc21 [III-a-5]
- LogP (Table 2 (amines III-a)): 1.36^[a]

Compound: CCC1(C)Cc2c(N)cccc21 (centres unmarked) [III-a-6]
- LogP (Table 2 (amines III-a)): 1.82^[a]

Compound: Nc1cccc2c1CC21CCCCC1 [III-a-7]
- LogP (Table 2 (amines III-a)): 2.37^[a]

Compound: Nc1cccc2c1CC2c1ccccc1 (centres unmarked) [III-a-8]
- LogP (Table 2 (amines III-a)): 2.20^[a]
